{"source": "ChEMBL document CHEMBL1777712", "about": "“The identification of new metallo-β-lactamase inhibitor leads from fragment-based screening” (Bioorg Med Chem Lett, 2011)", "key": {"[1]": {"experiment": "Un-competitive inhibition of metallo-beta-lactamase IMP-1 expressed in Escherichia coli BL21(DE3) using benzylpenicillin as substrate by 96-well plate assay"}, "[2]": {"experiment": "Competitive inhibition of metallo-beta-lactamase IMP-1 expressed in Escherichia coli BL21(DE3) using benzylpenicillin as substrate by 96-well plate assay"}, "[3]": {"experiment": "Competitive inhibition of metallo-beta-lactamase IMP-1 expressed in Escherichia coli BL21(DE3) using penicillin G as substrate by 96-well plate assay"}, "[4]": {"experiment": "Competitive inhibition of metallo-beta-lactamase IMP-1 expressed in Escherichia coli BL21(DE3) using penicillin G as substrate by cuvette assay"}}}
{"smiles": "Nc1ccc(C(F)(F)F)cc1N", "values": [{"measurement": "Ki", "setting": "[1]", "result": 430, "unit": "µM"}, {"measurement": "Ki", "setting": "[2]", "result": 990, "unit": "µM"}]}
{"smiles": "COC(=O)c1cccc(CN)c1", "values": [{"measurement": "Ki", "setting": "[1]", "result": 410, "unit": "µM"}, {"measurement": "Ki", "setting": "[2]", "result": 890, "unit": "µM"}]}
{"smiles": "OCc1ccc(-n2ccnc2)cc1", "values": [{"measurement": "Ki", "setting": "[1]", "result": 500, "unit": "µM"}, {"measurement": "Ki", "setting": "[2]", "result": "> 2000", "unit": "µM"}]}
{"smiles": "NC(=O)Cc1ccc(F)cc1Cl", "values": [{"measurement": "Ki", "setting": "[1]", "result": 680, "unit": "µM"}, {"measurement": "Ki", "setting": "[2]", "result": 760, "unit": "µM"}]}
{"smiles": "Nc1cccc(-c2cccnc2)c1", "values": [{"measurement": "Ki", "setting": "[1]", "result": 900, "unit": "µM"}, {"measurement": "Ki", "setting": "[2]", "result": 510, "unit": "µM"}]}
{"smiles": "Cn1c(S)nnc1C(F)(F)F", "values": [{"measurement": "Ki", "setting": "[1]", "result": "> 2000", "unit": "µM"}, {"measurement": "Ki", "setting": "[2]", "result": 970, "unit": "µM"}]}
{"smiles": "OCc1ccc(Cn2ccnc2)cc1", "values": [{"measurement": "Ki", "setting": "[1]", "result": 790, "unit": "µM"}, {"measurement": "Ki", "setting": "[2]", "result": "> 2000", "unit": "µM"}]}
{"smiles": "Nc1cccc(Cn2ccnc2)c1", "values": [{"measurement": "Ki", "setting": "[1]", "result": 780, "unit": "µM"}, {"measurement": "Ki", "setting": "[2]", "result": 1640, "unit": "µM"}]}
{"smiles": "Nc1ccc(Cn2ccnc2)cc1", "values": [{"measurement": "Ki", "setting": "[1]", "result": 1180, "unit": "µM"}, {"measurement": "Ki", "setting": "[2]", "result": 1510, "unit": "µM"}]}
{"smiles": "C[C@H](CS)C(=O)N1CCC[C@H]1C(=O)O", "note": "[CAPTOPRIL]", "values": [{"measurement": "Ki", "setting": "[3]", "result": 7.2, "unit": "µM"}, {"measurement": "Ki", "setting": "[1]", "result": "> 2000", "unit": "µM"}, {"measurement": "Ki", "setting": "[4]", "result": 12.5, "unit": "µM"}]}
